The record followed here is patent publication US12187713B2, “Immunomodulators, compositions and methods thereof” (Betta Pharmaceuticals Co., Ltd, priority 2019, dated 2025).

For orientation: IC50 means the midpoint of a concentration-inhibition curve. Low values mean inhibition by little substance, high ones a need for much substance.

SMILES strings stand for the structures.

The target of one experiment is PD-1/PD-L1 (Homo sapiens (Human), UniProt Q9NZQ7). As to the kind of experiment: PD-1/PD-L1 Binding Assay (Alphascreen). The settings on record: numeric values. In short, it runs like this: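 PD-1/PD-L1 binding detected by anti-6×His acceptor and streptavidin donor beads after 120 min in the dark at 25 °C. Beforehand, the two proteins were incubated 15 min at 25 °C with inhibitor at 0.015–300 nM (1% DMSO). IC50 comes from a log concentration–response curve.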
Chain of PD-1/PD-L1 (Q9NZQ7 19-238): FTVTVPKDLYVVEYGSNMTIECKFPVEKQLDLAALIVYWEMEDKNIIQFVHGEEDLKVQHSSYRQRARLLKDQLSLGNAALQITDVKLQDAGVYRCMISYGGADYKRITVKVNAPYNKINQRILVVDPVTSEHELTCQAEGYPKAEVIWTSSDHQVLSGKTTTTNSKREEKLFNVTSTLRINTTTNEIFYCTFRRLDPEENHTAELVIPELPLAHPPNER
(In general: In Alpha technology, singlet oxygen from a donor bead excites a nearby acceptor bead.)
On to `Cc1c(-c2nc3cc(CNC[C@@H]4CCC(=O)N4)c(OC(F)F)cc3o2)cccc1-c1cccc(-c2nc3cc(CN4CCC[C@H]4C(=O)O)c(OC(F)F)cc3o2)c1C` [Example 19, ((6-(difluoromethoxy)-2-(3′-(6-(difluoromethoxy)-5-(((((S)-5-oxopyrrolidin-2-yl)methyl)amino)methyl)benzo[d]oxazol-2-yl)-2,2′-dimethyl-[1,1′-biphenyl]-3-yl)benzo[d]oxazol-5-yl)methyl)-L-proline], for which the IC50 stood at 1.3 nM.
With `Cc1c(-c2nc3cc(CN[C@@H]4CCC[C@@H]4O)ccc3o2)cccc1-c1cccc(-c2nc3cc(CN4CCC[C@H]4C(=O)O)c(OC(F)F)cc3o2)c1C` [Example 99, ((6-(difluoromethoxy)-2-(3′-(5-((((1R,2S)-2-hydroxycyclopentyl)amino)methyl)benzo[d]oxazol-2-yl)-2,2′-dimethyl-[1,1′-biphenyl]-3-yl)benzo[d]oxazol-5-yl)methyl)-L-proline], the IC50 was 0.82 nM.
In turn, `Cc1c(-c2nc3cc(CN4CCC[C@H]4C(=O)O)c(OC(F)F)cc3o2)cccc1-c1cccc(-c2nc3cc(CN4CCCC4)c(F)c(F)c3o2)c1C#N` [Example 118, ((2-(2′-cyano-3′-(6,7-difluoro-5-(pyrrolidin-1-ylmethyl)benzo[d]oxazol-2-yl)-2-methyl-[1,1′-biphenyl]-3-yl)-6-(difluoromethoxy)benzo[d]oxazol-5-yl)methyl)-L-proline] registered an IC50 of 78 nM.
Still for that read-out and setting: the value for `Cc1c(-c2nc3ccc(CN4CCCC4)cn3n2)cccc1-c1cccc(-c2nc3cc(CN4CCC[C@H]4C(=O)O)c(OC(F)F)cc3o2)c1C` [Example 305, ((6-(difluoromethoxy)-2-(2,2′-dimethyl-3′-(6-(pyrrolidin-1-ylmethyl)-[1,2,4]triazolo[1,5-a]pyridin-2-yl)-[1,1′-biphenyl]-3-yl)benzo[d]oxazol-5-yl)methyl)-L-proline] was 0.87 nM.
As for `Cc1c(-c2nc3cc(CNCCO)c(OCc4ccc(C#N)nc4)cc3o2)cccc1-c1cccc(-c2nc3cc(CN4CCC[C@H]4C(=O)O)c(OC(F)F)cc3o2)c1C` [Example 119, ((2-(3′-(6-((6-cyanopyridin-3-yl)methoxy)-5-(((2-hydroxyethyl)amino)methyl)benzo[d]oxazol-2-yl)-2,2′-dimethyl-[1,1′-biphenyl]-3-yl)-6-(difluoromethoxy)benzo[d]oxazol-5-yl)methyl)-L-proline], the IC50 worked out at 1.9 nM.
Still for that read-out and setting: the value for `Cc1c(-c2nc3cc(CN4CCC[C@H]4C(N)=O)c(OC(F)F)cc3o2)cccc1-c1cccc(-c2nc3cc(CN4CCC[C@H]4C(=O)O)c(OC(F)F)cc3o2)c1C` [Example 11, ((2-(3′-(5-(((S)-2-carbamoylpyrrolidin-1-yl)methyl)-6-(difluoromethoxy)benzo[d]oxazol-2-yl)-2,2′-dimethyl-[1,1′-biphenyl]-3-yl)-6-(difluoromethoxy)benzo[d]oxazol-5-yl)methyl)-L-proline] was 33 nM; that for `Cc1c(-c2nc3cc(CN(C)[C@@H]4CCC[C@@H]4O)c(OC(F)F)cc3o2)cccc1-c1cccc(-c2nc3cc(CN4CCC[C@H]4C(=O)O)c(OC(F)F)cc3o2)c1C` [Example 1, ((6-(difluoromethoxy)-2-(3′-(6-(difluoromethoxy)-5-((((1R,2S)-2-hydroxycyclopentyl)(methyl)amino)methyl)benzo[d]oxazol-2-yl)-2,2′-dimethyl-[1,1′-biphenyl]-3-yl)benzo[d]oxazol-5-yl)methyl)-L-proline] was 0.89 nM; that for `CCNCc1cc2nc(-c3cccc(-c4cccc(-c5nc6cc(CN7CCC[C@H]7C(=O)O)c(OC(F)F)cc6o5)c4C)c3C)oc2cc1F` [Example 96, ((6-(difluoromethoxy)-2-(3′-(5-((ethylamino)methyl)-6-fluorobenzo[d]oxazol-2-yl)-2,2′-dimethyl-[1,1′-biphenyl]-3-yl)benzo[d]oxazol-5-yl)methyl)-L-proline] was 0.6 nM.
On the same count and under the same terms, the value for `Cc1c(-c2nc3cc(CN(C)CCO)c(OC(F)F)cc3o2)cccc1-c1cccc(-c2nc3cc(CN4CCC[C@H]4C(=O)O)c(OC(F)F)cc3o2)c1C` [Example 17, ((6-(difluoromethoxy)-2-(3′-(6-(difluoromethoxy)-5-(((2-hydroxyethyl)(methyl)amino)methyl)benzo[d]oxazol-2-yl)-2,2′-dimethyl-[1,1′-biphenyl]-3-yl)benzo[d]oxazol-5-yl)methyl)-L-proline] was 1.2 nM; that for `Cc1c(-c2nc3cc(CN4CCC[C@H]4C(=O)O)c(OC(F)F)cc3o2)cccc1-c1cccc(-c2nc3cc(CN4CC(C)(CO)C4)cc(C#N)c3o2)c1C` [Example 129, ((2-(3′-(7-cyano-5-((3-(hydroxymethyl)-3-methylazetidin-1-yl)methyl)benzo[d]oxazol-2-yl)-2,2′-dimethyl-[1,1′-biphenyl]-3-yl)-6-(difluoromethoxy)benzo[d]oxazol-5-yl)methyl)-L-proline] was 1.7 nM.
On to `Cc1c(-c2nc3cc(CNCCS(C)(=O)=O)c(OC(F)F)cc3o2)cccc1-c1cccc(-c2nc3cc(CN4CCC[C@H]4C(=O)O)c(OC(F)F)cc3o2)c1C` [Example 32, ((6-(difluoromethoxy)-2-(3′-(6-(difluoromethoxy)-5-(((2-(methylsulfonyl)ethyl)amino)methyl)benzo[d]oxazol-2-yl)-2,2′-dimethyl-[1,1′-biphenyl]-3-yl)benzo[d]oxazol-5-yl)methyl)-L-proline], for which the IC50 is 3.8 nM.

The same experiment, now with this note: range symbols.
The compound `Cc1c(-c2nc3cc(CN4CCC[C@H]4C(=O)O)c(OC(F)F)cc3o2)cccc1-c1cccc(-c2nc3cc(CN4CC(C)C(C)C4)cc(C(F)(F)F)c3o2)c1C` (stereo partly drawn) [Example 84, ((6-(difluoromethoxy)-2-(3′-(5-((3,4-dimethylpyrrolidin-1-yl)methyl)-7-(trifluoromethyl)benzo[d]oxazol-2-yl)-2,2′-dimethyl-[1,1′-biphenyl]-3-yl)benzo[d]oxazol-5-yl)methyl)-L-proline] showed an IC50 of 0.1 to 5 nM.
On the same count and under the same terms, then `Cc1c(-c2nc3cc(CN4CCC[C@H]4C(=O)O)c(OC(F)F)cc3o2)cccc1-c1cccc(-c2nc3cc(CN4CCC(C(N)=O)C4)cc(C#N)c3o2)c1C` (stereo partly drawn) [Example 315, ((2-(3′-(5-((3-carbamoylpyrrolidin-1-yl)methyl)-7-cyanobenzo [d]oxazol-2-yl)-2,2′-dimethyl-[1,1′-biphenyl]-3-yl)-6-(difluoromethoxy)benzo[d]oxazol-5-yl)methyl)-L-proline], with 0.1 to 5 nM; and `Cc1c(-c2nc3cc(CN4CCC[C@H]4C(=O)O)c(OC(F)F)cc3o2)cccc1-c1cccc(-c2ccc(CN3CCCC3)cc2F)c1Br` [Example 221, ((2-(2′-bromo-2″-fluoro-2-methyl-4″- (pyrrolidin-1-ylmethyl)-[1,1′:3′,1″-terphenyl]-3-yl)-6-(difluoromethoxy)benzo[d]oxazol-5-yl)methyl)proline], with 0.1 to 5 nM.
As to `CNCC1CN(Cc2cc3nc(-c4cccc(-c5cccc(-c6nc7cc(CN8CCC[C@H]8C(=O)O)c(OC(F)F)cc7o6)c5C)c4C)oc3cc2OC(F)F)C1` [Example 45, ((6-(difluoromethoxy)-2-(3′-(6-(difluoromethoxy)-5-((3-((methylamino)methyl)azetidin-1-yl)methyl)benzo[d]oxazol-2-yl)-2,2′-dimethyl-[1,1′-biphenyl]-3-yl)benzo[d]oxazol-5-yl)methyl)-L-proline], the IC50 fell in the range of 0.1 to 5 nM.
On the same count and under the same terms, then `Cc1c(-c2nc3cc(CN4CCC[C@H]4C(=O)O)c(OC(F)F)cc3o2)cccc1-c1cccc(-c2nc3cc(CN4CCCCC4CCO)cc(C#N)c3o2)c1C` (stereo partly drawn) [Example 135, ((2-(3′-(7-cyano-5-((2-(2-hydroxyethyl)piperidin-1-yl)methyl)benzo[d]oxazol-2-yl)-2,2′-dimethyl-[1,1′-biphenyl]-3-yl)-6-(difluoromethoxy)benzo[d]oxazol-5-yl)methyl)-L-proline], with 0.1 to 5 nM; and `CCN(CCO)Cc1cc(C#N)c2oc(-c3cccc(-c4cccc(-c5nc6cc(CN7CCC[C@H]7C(=O)O)c(OC(F)F)cc6o5)c4C)c3C)nc2c1` [Example 141, ((2-(3′-(7-cyano-5-((ethyl(2-hydroxyethyl)amino)methyl)benzo[d]oxazol-2-yl)-2,2′-dimethyl-[1,1′-biphenyl]-3-yl)-6-(difluoromethoxy)benzo[d]oxazol-5-yl)methyl)-L-proline], with 0.1 to 5 nM.
The same measure, in the same setting: then `COc1nc(-c2cccc(-c3cccc(-c4nc5cc(CN6CCC[C@H]6C(=O)O)c(OC(F)F)cc5o4)c3C)c2C)ccc1CN1C2CCC1CC2` [Example 278, ((2-(3′-(5-(((1s,4s)-7-azabicyclo[2.2.1]heptan-7-yl)methyl)-6-methoxypyridin-2-yl)-2,2′-dimethyl-[1,1′-biphenyl]-3-yl)-6-(difluoromethoxy)benzo[d]oxazol-5-yl)methyl)-L-proline], with 0.1 to 5 nM.
On to `Cc1c(-c2nc3cc(CN4CCC[C@H]4C(=O)O)c(OC(F)F)cc3o2)cccc1-c1cccc(-c2nc3cc(CNCC4CNC4)cc(C#N)c3o2)c1C` [Example 157], for which the IC50 is 0.1 to 5 nM.
Take `Cc1c(-c2nc3cc(CN4CCC[C@H]4C(=O)O)c(OC(F)F)cc3o2)cccc1-c1cccc(-c2ccc(CN3CCCC3)cc2F)c1Cl` [Example 223, ((2-(2′-chloro-2″-fluoro-2-methyl-4″- (pyrrolidin-1-ylmethyl)-[1,1′:3′,1″-terphenyl]-3-yl)-6-(difluoromethoxy)benzo[d]oxazol-5-yl)methyl)-L-proline]: the IC50 lay within 0.1 to 5 nM.
Still for that read-out and setting: the value for `Cc1c(-c2nc3cc(CN4CCCC4)cc(C(F)(F)F)c3[nH]2)cccc1-c1cccc(-c2nc3cc(CN4CCC[C@H]4C(=O)O)c(OC(F)F)cc3o2)c1C` [Example 301, ((6-(difluoromethoxy)-2-(2,2′-dimethyl-3′-(5-(pyrrolidin-1-ylmethyl)-7-(trifluoromethyl)-1H-benzo[d]imidazol-2-yl)-[1,1′-biphenyl]-3-yl)benzo[d]oxazol-5-yl)methyl)-L-proline] was 5 to 50 nM.
For `Cc1c(-c2nc3cc(CN4CCC[C@H]4C(=O)O)c(OC(F)F)cc3o2)cccc1-c1cccc(-c2nc3cc(CNCc4cn(C)cn4)cc(C#N)c3o2)c1C` [Example 160, ((2-(3′-(7-cyano-5-((((1-methyl-1H-imidazol-4-yl)methyl)amino)methyl)benzo[d]oxazol-2-yl)-2,2′-dimethyl-[1,1′-biphenyl]-3-yl)-6-(difluoromethoxy)benzo[d]oxazol-5-yl)methyl)-L-proline], the IC50 lay within 0.1 to 5 nM.
